Measured values published in patent US20050054620A1, “Paricalcitol as a chemotherapeutic agent” (priority 2003, published 2005).

Tests used:
[1] = test system: HL-60 cells; assay: Morphological analysis, Wright-Giemza stain; type: cell-based, human; details: 10^−7M, 120 hrs
Procedure: (A) Cell cycle analysis of HL-60 cells by flow cytometry. HL-60 cells were cultured with paricalcitol (10^−7 M) for 72 hrs, harvested and stained with propidium iodine (PI). Control cells were treated with vehicle alone. Results represent the mean±SD of three independent experiments. (B) HL-60 or NB-4 cells were treated with either paricalcitol (10^−7 M) or 1,25(OH)2D3 (10^−7 M). Cell lysates were prepared after 72 hrs and analyzed by Western blot with a series of antibodies (p21WAF1, p27KIP1, PTEN). Control cells were treated with vehicle alone. The amounts of protein were normalized by comparison to levels of GAPDH. […] Dashed line indicates negative control antibody; black area, CD14 antibody. CD14 positive cells are in the area shown by M2. (D) HL-60 cells were cultured with paricalcitol (10^−7 M) for 120 hrs, fixed and stained with Wright-Giemza stain for morphological analysis.

[2] = humans, cited from earlier work
[3] = test system: 24-hydroxylase mRNA; assay: RT-PCR of 24-hydroxylase mRNA in NB-4 cells; type: cell-based, human; details: paricalcitol 0.1 μM, arsenic trioxide 0.6 μM, after 24 hrs
Procedure: HL-60 and NB-4 myeloid leukemia cell lines were treated with paricalcitol (0.01 μM for HL-60, 0.1 μM for NB-4) and/or arsenic trioxide (0.8 μM for HL-60, 0.6 μM for NB-4). Control cells were treated with vehicle alone. […] Cell lysates were also made and used for Western blot which was probed with antibodies to C/EBPβ. (B) Cell lysate of HL-60 cells were made after 3 days and used for Western blot which was probed sequentially with antibodies to Bcl-2, BclXL and Bax (C) Cell lysates of HL-60 cells were made after 1, 2 or 3 days and used for Western blot which was probed sequentially with antibodies to phosphorylated ERK. (D) After pretreatment either with or without […] of PD98059 for 1 hour, HL-60 cells were treated with paricalcitol (0.01 μM) and/or arsenic trioxide (0.8 μM) for 2 days. Control cells were treated with vehicle alone. CD14 expression was measured by flow cytometry.
In FIG. 6B, HT-29 colon cancer cells were treated with paricalcitol (10^−7M) for 0, 6, 12 or 24 hrs and RNA was harvested. Expression of 24 hydroxylase mRNA was analysed by RT-PCR. The amounts of mRNA were normalized by comparison to 18S RNA. In FIG. 6C, mononuclear cells extracted from spleens of either wild type or VDR knock-out mice were treated with paricalcitol (10^−8M) for either 12 or 24 hrs, and RNA was harvested. Expression of 24 hydroxylase mRNA was analysed by RT-PCR. […]

[4] = test system: 24-hydroxylase mRNA; assay: RT-PCR of 24-hydroxylase mRNA, spleen mononuclear cells of wild type mice; type: cell-based; details: 10^−8 M
Procedure: In FIG. 6B, HT-29 colon cancer cells were treated with paricalcitol (10^−7M) for 0, 6, 12 or 24 hrs and RNA was harvested. Expression of 24 hydroxylase mRNA was analysed by RT-PCR. The amounts of mRNA were normalized by comparison to 18S RNA. In FIG. 6C, mononuclear cells extracted from spleens of either wild type or VDR knock-out mice were treated with paricalcitol (10^−8M) for either 12 or 24 hrs, and RNA was harvested. Expression of 24 hydroxylase mRNA was analysed by RT-PCR. The amounts of mRNA were normalized by comparison to 18S RNA. For the PCR analysis, RNA extraction and reverse transcription were done by TRIzole (Invitrogen, Carlsbad, Calif.) and reverse transcriptase (Promega, Madison, Wis.). A twenty-microliter volume of cDNA was prepared from 1 μg of RNA. cDNAs were amplified by PCR with specific primers for 24-hydroxylase and 18S. The cycle number was 25 for 18S and 32 for 24-hydroxylase. […] The VDR KO Mouse and Colony-Forming Assay was performed as follows. VDR KO mice were generated and genotypes were determined by Southern Blot Analysis as described previously (O'Kelly et al., supra, 2002). For experiments using VDR KO mice, their wild-type (WT) littermates were used as controls. Mice were killed by cervical neck dislocation. […] Colonies were counted after 2 weeks. […]

For `C[C@H](/C=C/[C@H](C)C(C)(C)O)[C@H]1CC[C@H]2/C(=C/C=C3C[C@@H](O)C[C@H](O)C3)CCC[C@]12C` [paricalcitol, 19-nor-1,25, (OH)2D3], the morphological examination [1] is given as “monocytic differentiation”, the peak serum levels [2] is given as 1850 pg/mL and the serum half-life ([2]; paricalcitol compared with 1,25(OH)2D3) is given as “similar”. For the same compound, the “mRNA levels of 24-hydroxylase” value [3] was “increased” and the “time within which 24-hydroxylase mRNA expression was induced” value [4] was no more than 12 h.
